Reference: US10800792B2, “Inhibitors of Bruton's tyrosine kinase and method of their use” (JANSSEN PHARMACEUTICA NV, priority 2015, dated 2020)

Target: unphosphorylated-BTK kinase domain (UP-BTK), GST-tagged human BTK (389-659aa) (Homo sapiens (Human), UniProt Q06187)
Test: BTK kinase Lanthascreen binding assay
Conditions: unphosphorylated-BTK kinase domain, 50 nM Tracer 236, 60 minutes, pIC50 = negative log of the IC50 in molar; for IC50: read-out: BTK_I_binding pIC50 (converted)
Summary of the method: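 A fluorescent tracer is bound to unphosphorylated BTK; test compound is added to compete it off; the Lanthascreen signal is read and IC50 is fitted, then reported as its negative log in molar.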

Chain of unphosphorylated-BTK kinase domain (UP-BTK), GST-tagged human BTK (389-659aa) (Q06187 389-659): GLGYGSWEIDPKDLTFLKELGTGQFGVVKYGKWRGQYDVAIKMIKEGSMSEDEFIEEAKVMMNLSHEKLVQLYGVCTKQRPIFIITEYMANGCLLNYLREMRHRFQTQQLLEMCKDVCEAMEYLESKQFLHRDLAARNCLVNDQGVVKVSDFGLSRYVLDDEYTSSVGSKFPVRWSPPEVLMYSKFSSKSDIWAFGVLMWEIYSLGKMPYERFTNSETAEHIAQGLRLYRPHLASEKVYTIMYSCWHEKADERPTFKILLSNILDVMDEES

| BTK_I_binding pIC50 | IC50 | SMILES |
| --- | --- | --- |
| 7.3 |  | C=CC(=O)N1CCC[C@@H](NC(=O)c2sc3nccc4c3c2NC(=O)N4c2cccc(OC3CCCC3)c2)C1 [Example 561, (R)—N-(1-Acryloylpiperidin-3-yl)-5-(3-(cyclopentyloxy)phenyl)-4-oxo-4,5-dihydro-3H-1-thia-3,5,8-triazaacenaphthylene-2-carboxamide] |
| 6.7 |  | Cc1cc(OC(C)C)ccc1N1C(=O)Nc2c(C(=O)N[C@@H]3CCN(C(=O)/C=C/CN(C)C)C3)sc3nccc1c23 [Example 562, (R,E)-N-(1-(4-(Dimethylamino)but-2-enoyl)pyrrolidin-3-yl)-5-(4-isopropoxy-2-methylphenyl)-4-oxo-4,5-dihydro-3H-1-thia-3,5,8-triazaacenaphthylene-2-carboxamide] |
| 7.0 |  | C=CC(=O)N1CCC[C@@H](NC(=O)c2sc3nccc4c3c2NC(=O)N4c2cccc(-c3ccccc3C(F)(F)F)c2)C1 [Example 563, (R)—N-(1-Acryloylpiperidin-3-yl)-4-oxo-5-(2′-(trifluoromethyl)-[1,1′-biphenyl]-3-yl)-4,5-dihydro-3H-1-thia-3,5,8-triazaacenaphthylene-2-carboxamide] |
| 7.2 |  | Cc1cc(Oc2ccccc2)ccc1N1C(=O)Nc2c(C(=O)N[C@@H]3CCCN(C(=O)[C@H](C)CO)C3)sc3nccc1c23 [Example 564, N—((R)-1-((R)-3-Hydroxy-2-methylpropanoyl)piperidin-3-yl)-5-(2-methyl-4-phenoxyphenyl)-4-oxo-4,5-dihydro-3H-1-thia-3,5,8-triazaacenaphthylene-2-carboxamide] |
| 7.0 |  | C=CC(=O)N1CCC[C@@H](NC(=O)c2sc3nccc4c3c2NC(=O)N4c2cccc(OC(C)C)c2)C1 [Example 565, (R)—N-(1-Acryloylpiperidin-3-yl)-5-(3-isopropoxyphenyl)-4-oxo-4,5-dihydro-3H-1-thia-3,5,8-triazaacenaphthylene-2-carboxamide] |
| 6.6 |  | C=CC(=O)N1CCC[C@@H](NC(=O)c2sc3nccc4c3c2NC(=O)N4c2cccc(C(C)=O)c2)C1 [Example 566, (R)-5-(3-Acetylphenyl)-N-(1-acryloylpiperidin-3-yl)-4-oxo-4,5-dihydro-3H-1-thia-3,5,8-triazaacenaphthylene-2-carboxamide] |
| 7.4 |  | C=CC(=O)N1CC[C@@H](NC(=O)c2sc3nccc4c3c2NC(=O)N4c2ccnc(-c3ccccc3)c2)C1 [Example 567, (R)—N-(1-Acryloylpyrrolidin-3-yl)-4-oxo-5-(2-phenylpyridin-4-yl)-4,5-dihydro-3H-1-thia-3,5,8-triazaacenaphthylene-2-carboxamide] |
| 7.4 |  | C=CC(=O)N1CCC[C@@H](NC(=O)c2sc3nccc4c3c2NC(=O)N4c2cccc(OC(F)(F)F)c2)C1 [Example 568, (R)—N-(1-Acryloylpiperidin-3-yl)-4-oxo-5-(3-(trifluoromethoxy)phenyl)-4,5-dihydro-3H-1-thia-3,5,8-triazaacenaphthylene-2-carboxamide] |
| 7.0 |  | C=CC(=O)N1CCC[C@@H](NC(=O)c2sc3nccc4c3c2NC(=O)N4c2cccc(C3CC3)c2)C1 [Example 569, (R)—N-(1-Acryloylpiperidin-3-yl)-5-(3-cyclopropylphenyl)-4-oxo-4,5-dihydro-3H-1-thia-3,5,8-triazaacenaphthylene-2-carboxamide] |
|  | 63.1 nM | CN(C)C/C=C/C(=O)N1CC[C@@H](NC(=O)c2sc3nccc4c3c2NC(=O)N4c2cccc(-c3ccccc3)c2)C1 [Example 570, (R,E)-5-([1,1′-Biphenyl]-3-yl)-N-(1-(4-(dimethylamino)but-2-enoyl)pyrrolidin-3-yl)-4-oxo-4,5-dihydro-3H-1-thia-3,5,8-triazaacenaphthylene-2-carboxamide] |
| 7.0 |  | COC[C@@H](C)C(=O)N1CCC[C@@H](NC(=O)c2sc3nccc4c3c2NC(=O)N4c2ccc(Oc3ccccc3)cc2C)C1 [Example 571, N—((R)-1-((R)-3-Methoxy-2-methylpropanoyl)piperidin-3-yl)-5-(2-methyl-4-phenoxyphenyl)-4-oxo-4,5-dihydro-3H-1-thia-3,5,8-triazaacenaphthylene-2-carboxamide] |
| 7.1 |  | CN(C)CC(=O)N1CCC[C@@H](NC(=O)c2sc3nccc4c3c2NC(=O)N4c2ccc(Oc3ccccc3)c(Cl)c2)C1 [Example 572, (R)-5-(3-Chloro-4-phenoxyphenyl)-N-(1-(2-(dimethylamino)acetyl)piperidin-3-yl)-4-oxo-4,5-dihydro-3H-1-thia-3,5,8-triazaacenaphthylene-2-carboxamide] |
| 6.6 |  | CN(C)C/C=C/C(=O)N1CCC[C@@H](NC(=O)c2sc3nccc4c3c2NC(=O)N4c2cccc(-c3ccccc3)c2)C1 [Example 573, (R,E)-5-([1,1′-Biphenyl]-3-yl)-N-(1-(4-(dimethylamino)but-2-enoyl)piperidin-3-yl)-4-oxo-4,5-dihydro-3H-1-thia-3,5,8-triazaacenaphthylene-2-carboxamide] |
|  | 158 nM | C=CC(=O)N1CC[C@@H](NC(=O)c2sc3nccc4c3c2NC(=O)N4c2ccc(Oc3ccccc3)cc2)[C@@H](O)C1 [Example 574] |
| 7.3 |  | CNCC(=O)N1CCC[C@@H](NC(=O)c2sc3nccc4c3c2NC(=O)N4c2ccc(Oc3ccccc3)c(Cl)c2)C1 [Example 575, (R)-5-(3-Chloro-4-phenoxyphenyl)-N-(1-(2-(methylamino)acetyl)piperidin-3-yl)-4-oxo-4,5-dihydro-3H-1-thia-3,5,8-triazaacenaphthylene-2-carboxamide] |
| 7.3 |  | COCC(=O)N1CCC[C@@H](NC(=O)c2sc3nccc4c3c2NC(=O)N4c2ccc(Oc3ccccc3)cc2)C1 [Example 576, (R)—N-(1-(2-Methoxyacetyl)piperidin-3-yl)-4-oxo-5-(4-phenoxyphenyl)-4,5-dihydro-3H-1-thia-3,5,8-triazaacenaphthylene-2-carboxamide] |
| 7.2 |  | O=C(N[C@@H]1CCNC1)c1sc2nccc3c2c1NC(=O)N3c1ccc(Oc2ccccc2)c(Cl)c1 [Example 577, (R)-5-(3-Chloro-4-phenoxyphenyl)-4-oxo-N-(pyrrolidin-3-yl)-4,5-dihydro-3H-1-thia-3,5,8-triazaacenaphthylene-2-carboxamide] |
| 6.9 |  | O=C1CCC(NC(=O)c2sc3nccc4c3c2NC(=O)N4c2ccc(Oc3ccccc3)cc2)CN1 (stereo not shown) [Example 578, 4-Oxo-N-(6-oxopiperidin-3-yl)-5-(4-phenoxyphenyl)-4,5-dihydro-3H-1-thia-3,5,8-triazaacenaphthylene-2-carboxamide] |
| 6.9 |  | O=C(N[C@H]1CNC[C@@H]1F)c1sc2nccc3c2c1NC(=O)N3c1ccc(Oc2ccccc2)cc1 [Example 579, N-((3S,4S)-4-Fluoropyrrolidin-3-yl)-4-oxo-5-(4-phenoxyphenyl)-4,5-dihydro-3H-1-thia-3,5,8-triazaacenaphthylene-2-carboxamide] |
| 6.9 |  | Cc1ccc(-c2cccc(N3C(=O)Nc4c(C(=O)N[C@@H]5CCCNC5)sc5nccc3c45)c2)cc1 [Example 580, (R)-5-(4′-Methyl-[1,1′-biphenyl]-3-yl)-4-oxo-N-(piperidin-3-yl)-4,5-dihydro-3H-1-thia-3,5,8-triazaacenaphthylene-2-carboxamide] |
| 6.8 |  | O=C(N[C@@H]1CCCNC1)c1sc2nccc3c2c1NC(=O)N3c1ccc(Oc2ccccc2)c(Cl)c1 [Example 581, (R)-5-(3-Chloro-4-phenoxyphenyl)-4-oxo-N-(piperidin-3-yl)-4,5-dihydro-3H-1-thia-3,5,8-triazaacenaphthylene-2-carboxamide] |
| 6.7 |  | CC(=O)N1CCC[C@@H](NC(=O)c2sc3nccc4c3c2NC(=O)N4c2ccc(Oc3ccccc3)c(Cl)c2)C1 [Example 582, (R)—N-(1-Acetylpiperidin-3-yl)-5-(3-chloro-4-phenoxyphenyl)-4-oxo-4,5-dihydro-3H-1-thia-3,5,8-triazaacenaphthylene-2-carboxamide] |
| 6.7 |  | Cc1cc(N2C(=O)Nc3c(C(=O)N[C@@H]4CCCNC4)sc4nccc2c34)ccc1Oc1ccccc1 [Example 583, (R)-5-(3-Methyl-4-phenoxyphenyl)-4-oxo-N-(piperidin-3-yl)-4,5-dihydro-3H-1-thia-3,5,8-triazaacenaphthylene-2-carboxamide] |
| 6.6 |  | C=CC(=O)N1CCC[C@@H](NC(=O)c2sc3nccc4c3c2NC(=O)N4c2ccc(C)c(Cl)c2)C1 [Example 584, (R)—N-(1-Acryloylpiperidin-3-yl)-5-(3-chloro-4-methylphenyl)-4-oxo-4,5-dihydro-3H-1-thia-3,5,8-triazaacenaphthylene-2-carboxamide] |
| 6.5 |  | O=C(N[C@@H]1CCCNC1)c1sc2nccc3c2c1NC(=O)N3c1ccnc(-c2ccccc2)c1 [Example 585, (R)-4-Oxo-5-(2-phenylpyridin-4-yl)-N-(piperidin-3-yl)-4,5-dihydro-3H-1-thia-3,5,8-triazaacenaphthylene-2-carboxamide] |
|  | 251 nM | O=C(N[C@H]1CNC[C@H](O)C1)c1sc2nccc3c2c1NC(=O)N3c1ccc(Oc2ccccc2)cc1 [Example 586, N-((3R,5R)-5-Hydroxypiperidin-3-yl)-4-oxo-5-(4-phenoxyphenyl)-4,5-dihydro-3H-1-thia-3,5,8-triazaacenaphthylene-2-carboxamide] |
| 6.5 |  | CN1CC[C@@H](NC(=O)c2sc3nccc4c3c2NC(=O)N4c2cccc(-c3ccccc3)c2)C1 [Example 587, (R)-5-([1,1′-Biphenyl]-3-yl)-N-(1-methylpyrrolidin-3-yl)-4-oxo-4,5-dihydro-3H-1-thia-3,5,8-triazaacenaphthylene-2-carboxamide] |
| 6.4 |  | CO[C@H]1CNC[C@@H]1NC(=O)c1sc2nccc3c2c1NC(=O)N3c1ccc(Oc2ccccc2)cc1 [Example 588, N-((3S,4S)-4-Methoxypyrrolidin-3-yl)-4-oxo-5-(4-phenoxyphenyl)-4,5-dihydro-3H-1-thia-3,5,8-triazaacenaphthylene-2-carboxamide] |
